According to patent US10744150B2, “Cyclic dinucleotides as anticancer agents” (BRISTOL-MYERS SQUIBB COMPANY, priority 2017, dated 2020):
Like-named read-outs stand apart in the source and are kept apart here.

What was measured:
IRF3 = assay: STING THP1 reporter assay, IRF pathway (secreted luciferase Lucia, QUANTI-Luc); assay type: cell-based; settings: THP1-Dual cells, 10% human plasma, 100% activation = 100 μM cGAMP, luciferase readout, read-out: THP1 Reporter Assays EC50 IRF3
Text: (§1) THP1-Dual™ cells were derived from the human THP-1 monocyte cell line by stable integration of two inducible reporter constructs. To this end, THP1-Dual™ cells allow the simultaneous study of the NF-κB pathway, by monitoring the activity of SEAP, and the IRF pathway by assessing the activity of a secreted luciferase (Lucia). Both reporter proteins are readily measurable in the cell culture supernatant when using QUANTI-Blue™, a SEAP detection reagent, and QUANTI-Luc™, a luciferase detection reagent.
(§2) THP1-Dual™ cells induce the activation of NF-κB in response to STING agonists. They also trigger the IRF pathway upon stimulation with STING agonists, such as cGAMP. Here, the THP-1-Dual cells were used to assess STING binders for function on the cellular level.
(§3) Serial dilutions of compounds in DMSO were added to low volume 384 well plates at 100 nl/well using an ECHO acoustic dispenser (Labcyte, model 550) to achieve final starting concentration of 100 μM in cell suspension. THP-1 Dual™ STING reporter cells (Invivogen, Dual cells cat # THPD-nfis) were added to the plates with compounds at 15,000 cells in 10 μL per well in RPMI media (Gibco, cat #11875) containing 10% human plasma in a low volume 384-well black wall clear bottom tissue culture plate (Corning, cat #3542) for SEAP assay and low volume solid white plate (Corning, cat #3826) for luciferase assay. One column of the plate was reserved for treatment with cGAMP at 100 μM for 100% activation calculation and one column for no treatment (DMSO only) for baseline activation. Plates were then incubated in 37° C. incubator at 5% CO2 for 20 hours.
(§4) In the SEAP assay, 5 μl of 2× QuantiBlue (Invivogen, cat # Rep-qb2) is added to 384 well black plates seeded with THP1 cells and incubated at 37° C. for 2 hours. Plates were read on the Envision (Perkin Elmer) at 620 nm wavelength (OD620). In the luciferase assay, 5 μl of Quantiluc (Invivogen, Rep-qlc2) is added to white 384 well plates seeded with THP1 cells and read at 5 minutes on the Envision (Perkin Elmer) using a luminescence protocol (RLU). For both cell lines, 100% activation was determined by value (RLU) of THP-1 Dual STING cells stimulated with 100 μM cGAMP (Invivogen, cat # TLRL-NACGA23-5).

[1] = biological target: T1, STING WT: His-TVMV-S-hSTING(155-341)-H232R (Homo sapiens, UniProt Q86WV6, H232R); assay: STING HTRF binding assay (time resolved FRET competition), STING WT; settings: 20 nM His-tagged STING cytoplasmic domain, 200 nM fluorescein-labeled cGAMP analog probe, one hour; read-out: HTRF Binding Assays IC50 STING WT
T1 construct: His-TVMV-S-hSTING(155-341)-H232R
Experimental: (§5) A time resolved FRET-based competition binding assay was used to assess test article binding to STING WT and STING AQ. His-tagged STING cytoplasmic domain (WT or AQ) at a concentration of 20 nM was incubated with 2.5 nM Tb-labeled anti-His antibody, test compound, and fluorescein-labeled cGAMP analog probe (BioLog cat. no. C195) at a concentration of 200 nM (STING WT) or 40 nM (STING AQ) in PBS containing 0.005% Tween-20 and 0.1% BSA for one hour. Fluorescence at 495 nm and 520 nm was measured using an EnVision microplate reader to quantify FRET between Tb-labeled anti-His antibody and fluorescein-labeled probe. Background was defined as the signal obtained in the absence of STING protein, and background subtracted FRET ratios were normalized to the maximum signal obtained in the absence of test compound. These values were converted to a percent inhibition. Percent inhibition was determined for test compounds at 11 concentrations. The IC50, defined as the concentration of competing test compound needed to reduce specific binding of the probe by 50%, was calculated using the 4 parameter logistic equation to fit the data

NFkB = assay: STING THP1 reporter assay, NF-κB pathway (SEAP, QUANTI-Blue); assay type: cell-based; settings: THP1-Dual cells, 10% human plasma, 100% activation = 100 μM cGAMP
Text: as §1, §2, §3, §4

[2] = biological target: T2, STING AQ: His-TVMV-S-hSTING(155-341)-G230A-R293Q (Homo sapiens, UniProt Q86WV6, G230A/H232R/R293Q); assay: STING HTRF binding assay (time resolved FRET competition), STING AQ; settings: 20 nM His-tagged STING cytoplasmic domain, 40 nM fluorescein-labeled cGAMP analog probe, one hour; read-out: HTRF Binding Assays IC50 STING AQ
T2 construct: His-TVMV-S-hSTING(155-341)-G230A-R293Q
Experimental: as §5

[3] = 20 hours, SEAP readout OD620, read-out: THP1 Reporter Assays EC50 NFkB
[4] = Homo sapiens, THP-1, 20 h, SEAP readout OD620, read-out: THP1 Reporter Assays EC50 NFkB

T2 sequence (Q86WV6 with tags, fused parts or gaps G230A/H232R/R293Q): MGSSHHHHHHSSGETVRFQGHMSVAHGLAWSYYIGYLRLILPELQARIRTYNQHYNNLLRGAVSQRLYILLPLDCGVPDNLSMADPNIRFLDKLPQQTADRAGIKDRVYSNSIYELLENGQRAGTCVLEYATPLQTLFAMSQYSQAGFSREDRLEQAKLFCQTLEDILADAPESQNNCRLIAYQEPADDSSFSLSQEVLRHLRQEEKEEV
T1 sequence (Q86WV6 with tags, fused parts or gaps H232R): as the sequence (Q86WV6 with tags, fused parts or gaps G230A/H232R/R293Q) above, with A99G, Q162R counted along it

Row | Structure (SMILES) | EC50 (IRF3; 20 hours) | IC50 [1] | EC50 (NFkB; [3]) | IC50 [2] | EC50 (IRF3; Homo sapiens, THP-1, 20 h) | EC50 (NFkB; [4])
1 | NC(=O)c1cccc2c1nnn2[C@@H]1O[C@@H]2COP(O)(=S)OC[C@@H]3[C@@H](COP(O)(=S)O[C@@H]1[C@@H]2F)C[C@H]3n1cnc2c(N)ncnc21 (single isomer, unassigned) [Example 11-4] | > 100 µM | 66.2 µM | > 100 µM | 23.1 µM | – | –
2 | NC(=O)c1cccc2c1nnn2[C@@H]1O[C@@H]2COP(O)(=S)OC[C@@H]3[C@@H](COP(O)(=S)O[C@H]2[C@H]1F)C[C@H]3n1cnc2c(N)ncnc21 (single isomer, unassigned) [Example 12-1] | – | 52.8 µM | – | 19.9 µM | > 100 µM | > 100 µM
3 | NC(=O)c1cccc2c1nnn2[C@@H]1O[C@@H]2COP(O)(=S)OC[C@@H]3[C@@H](COP(O)(=S)O[C@H]2[C@H]1F)C[C@H]3n1cnc2c(N)ncnc21 (single isomer, unassigned) [Example 12-2] | > 100 µM | > 100 µM | > 100 µM | 88.7 µM | – | –
4 | NC(=O)c1cccc2c1nnn2[C@@H]1O[C@@H]2COP(O)(=S)OC[C@@H]3[C@@H](COP(O)(=S)O[C@H]2[C@H]1F)C[C@H]3n1cnc2c(N)ncnc21 (single isomer, unassigned) [Example 12-3] | > 100 µM | > 100 µM | > 100 µM | 64.4 µM | – | –
5 | NC(=O)c1cccc2c1nnn2[C@@H]1O[C@@H]2COP(O)(=S)OC[C@@H]3[C@@H](COP(O)(=S)O[C@H]2[C@H]1F)C[C@H]3n1cnc2c(N)ncnc21 (single isomer, unassigned) [Example 12-4] | > 100 µM | 22 µM | > 100 µM | 0.4 µM | – | –
6 | NC(=O)c1cccc2c1nnn2[C@@H]1C[C@@H]2COP(O)(=S)O[C@H]3[C@@H](F)[C@H](n4cnc5c(N)ncnc54)O[C@@H]3COP(O)(=S)OC[C@H]21 (single isomer, unassigned) [Example 13-1] | – | > 100 µM | – | 85.1 µM | > 100 µM | > 100 µM
7 | NC(=O)c1cccc2c1nnn2[C@@H]1C[C@@H]2COP(O)(=S)O[C@H]3[C@@H](F)[C@H](n4cnc5c(N)ncnc54)O[C@@H]3COP(O)(=S)OC[C@H]21 (single isomer, unassigned) [Example 13-2] | > 100 µM | > 100 µM | > 100 µM | 3 µM | – | –
8 | NC(=O)c1cccc2c1nnn2[C@@H]1C[C@@H]2COP(O)(=S)O[C@H]3[C@@H](F)[C@H](n4cnc5c(N)ncnc54)O[C@@H]3COP(O)(=S)OC[C@H]21 (single isomer, unassigned) [Example 13-3] | > 100 µM | > 100 µM | > 100 µM | 3.8 µM | – | –
9 | NC(=O)c1cccc2c1nnn2[C@@H]1C[C@@H]2COP(O)(=S)O[C@H]3[C@@H](F)[C@H](n4cnc5c(N)ncnc54)O[C@@H]3COP(O)(=S)OC[C@H]21 (single isomer, unassigned) [Example 13-4] | 86 µM | 3 µM | > 100 µM | 0.05 µM | – | –
10 | O=c1[nH]c2nccn2c2c1ncn2[C@@H]1O[C@@H]2COP(=O)(S)OC[C@@H]3[C@@H](COP(=O)(S)O[C@@H]1[C@@H]2O)C[C@H]3n1cnc2c(O)ncnc21 (single isomer, unassigned) [Example 14-1] | – | 83 µM | – | 4.5 µM | > 100 µM | > 100 µM
11 | O=c1[nH]c2nccn2c2c1ncn2[C@@H]1O[C@@H]2COP(=O)(S)OC[C@@H]3[C@@H](COP(=O)(S)O[C@@H]1[C@@H]2O)C[C@H]3n1cnc2c(O)ncnc21 (single isomer, unassigned) [Example 14-2] | > 100 µM | 25.5 µM | > 100 µM | 5.1 µM | – | –
12 | O=c1[nH]c2nccn2c2c1ncn2[C@@H]1O[C@@H]2COP(=O)(S)OC[C@@H]3[C@@H](COP(=O)(S)O[C@@H]1[C@@H]2O)C[C@H]3n1cnc2c(O)ncnc21 (single isomer, unassigned) [Example 14-3] | > 100 µM | 14.3 µM | > 100 µM | 1.7 µM | – | –
13 | O=c1[nH]c2nccn2c2c1ncn2[C@@H]1O[C@@H]2COP(=O)(S)OC[C@@H]3[C@@H](COP(=O)(S)O[C@@H]1[C@@H]2O)C[C@H]3n1cnc2c(O)ncnc21 (single isomer, unassigned) [Example 14-4] | > 100 µM | 4.3 µM | > 100 µM | 0.92 µM | – | –
14 | Nc1ncnc2c1ncn2[C@@H]1C[C@@H]2COP(O)(=S)O[C@@H]3[C@H](O)[C@@H](COP(O)(=S)OC[C@H]21)O[C@H]3n1cnc2c(O)nc3nccn3c21 (single isomer, unassigned) [Example 15-1] | – | 33.5 µM | – | 4.4 µM | > 100 µM | > 100 µM
15 | Nc1ncnc2c1ncn2[C@@H]1C[C@@H]2COP(O)(=S)O[C@@H]3[C@H](O)[C@@H](COP(O)(=S)OC[C@H]21)O[C@H]3n1cnc2c(O)nc3nccn3c21 (single isomer, unassigned) [Example 15-2] | > 100 µM | 26.9 µM | > 100 µM | 1.8 µM | – | –
16 | Nc1ncnc2c1ncn2[C@@H]1C[C@@H]2COP(O)(=S)O[C@@H]3[C@H](O)[C@@H](COP(O)(=S)OC[C@H]21)O[C@H]3n1cnc2c(O)nc3nccn3c21 (single isomer, unassigned) [Example 15-3] | > 100 µM | 32.6 µM | > 100 µM | 1.2 µM | – | –
17 | Nc1ncnc2c1ncn2[C@@H]1C[C@@H]2COP(O)(=S)O[C@@H]3[C@H](O)[C@@H](COP(O)(=S)OC[C@H]21)O[C@H]3n1cnc2c(O)nc3nccn3c21 (single isomer, unassigned) [Example 15-4] | > 100 µM | 3.9 µM | > 100 µM | 0.47 µM | – | –
18 | Nc1ncnc2c1ncn2[C@@H]1C[C@@H]2COP(O)(=S)O[C@H]3[C@H](F)[C@H](n4cnc5c(N)ncnc54)O[C@@H]3COP(O)(=S)OC[C@H]21 (single isomer, unassigned) [Example 17-1] | – | > 100 µM | 2 µM | > 100 µM | > 100 µM | –
19 | Nc1ncnc2c1ncn2[C@@H]1C[C@@H]2COP(O)(=S)O[C@H]3[C@H](F)[C@H](n4cnc5c(N)ncnc54)O[C@@H]3COP(O)(=S)OC[C@H]21 (single isomer, unassigned) [Example 17-2] | > 100 µM | > 100 µM | > 100 µM | 1.9 µM | – | –
20 | Nc1nc2c(ncn2[C@@H]2C[C@@H]3COP(O)(=S)O[C@H]4[C@@H](F)[C@H](n5cnc6c(N)ncnc65)O[C@@H]4COP(O)(=S)OC[C@H]32)c(=O)[nH]1 (single isomer, unassigned) [Example 18-1] | 0.6 µM | 0.004 µM | 2.6 µM | 0.002 µM | – | –
